Results published in US5045566A, “Novel imidate insecticides” (ICI Americas Inc., priority 1989, dated 1991).

Columns and labels:
Assay type in all cases: in vivo
[1] = test system: Housefly [Musca domestica]; assay: Housefly contact mortality in dishes (HF), 48 hours; conditions: μg of test compound per 25 female flies
Outline: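 Residual contact test: acetone dilution, 0.01% peanut oil spreader, solvent evaporated; 25 ♀ flies (1-2 d old) per cage; sugar-water plug; 48 h mortality read. LC50 in μg/25 female flies, from dose-mortality curves; top dose 100 μg/25 flies.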

[2] = test system: Black Bean Aphid [Aphis fabae (Scop.)]; assay: Black bean aphid spray test on nasturtium (BBA), 48 hours; conditions: percent of test compound in sprayed solution
Outline: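 LC50, given as percent test compound in the sprayed liquid, was calculated from dosage-mortality curves using concentrations from 0.05% downward. Sprays in 50:50 acetone-water went to runoff on ~5 cm nasturtiums carrying 25-50 aphids of mixed ages, one day after infestation. Deaths were counted 48 h later under greenhouse conditions.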

[3] = test system: Tobacco Budworm [Heliothis virescens (Fabricius)] eggs; assay: Tobacco budworm eggs (TBW-E); conditions: percent in solution; 2-day old eggs
Outline: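 Paper towel patches bearing 2-day old eggs were dipped in acetone solutions of compound, then set in petri dishes over larval rearing medium at 78° F. Mortality was scored once all control eggs had hatched and larvae were feeding. LC50, from dosage-mortality curves, is given as percent compound in solution.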

[4] = test system: Beet Armyworm (Spodoptera exigua); assay: Beet armyworm leaf dip (BAW), 5 days; conditions: percent in solution; second-instar larvae; five days
Procedure: (§1) The compounds in Tables 1 and 2 above were tested for insecticidal activity using the following testing procedures. LC50 values, based on the results of these tests and calculated according to dosage-mortality curves, are expressed in Table 3.
Beet Armyworm (Spodoptera exigua):
Test compounds were diluted in a 50-50 acetone-water solution. Young leaves of sugar beets (Beta vulgaris) were immersed in the test solutions for 2-3 seconds and placed on a wire screen to dry. The dried leaves were placed in petri dishes containing a moistened filter paper and infested with five second-instar beet armyworm larvae. The dishes were placed in a high humidity chamber. Mortality of the larvae was recorded five days later. Test concentrations ranged from 0.1% downward. The LC-50 values are expressed below in Table 3 under the heading "BAW" in terms of percent of the test compound in solution.

[5] = test system: Cabbage Looper [Trichoplusia ni (Hubner)]; assay: Cabbage looper leaf dip (CL), 3-5 days; conditions: percent in solution, second-instar larvae
Outline: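 Compounds in 50-50 acetone-water were applied by dipping squash cotyledons (about 1×1.5 in) for 2-3 s; dried leaves went into petri dishes on moist filter paper with 5 second-instar larvae under high humidity. Mortality was scored after 3-5 days; LC50 from dosage-mortality curves, as percent compound in solution.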

[6] = test system: Aster Leafhopper [Macrosteles fascifrens (Stal)]; assay: Aster leafhopper on dipped oat seedlings (LH), 48 hours; conditions: percent in solution, adults/nymphs
Outline: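 Three ~10 cm oat seedlings per cup were dipped 2-3 seconds in 50-50 acetone-water compound solutions, dried, and caged with ten adult/nymph leafhoppers. Mortality was counted after 48 hours at concentrations from 0.05% downward. LC50, as percent compound in solution, came from dosage-mortality curves.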

[7] = test system: Maize weevil [Sitophilus zeamais (Motschulsky)]; assay: Maize weevil on dipped corn seeds (MW), 48 hours; conditions: percent in solution, adult weevils
Outline: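 LC50, given as percent of compound in dipping solution, comes from dosage-mortality curves over concentrations descending from 0.01%. Four corn seeds soaked 2-3 s in 50:50 acetone:water solution were dried and held with 10 adult weevils, about 25° C, mortality read after 48 h.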

[8] = test system: Tobacco Budworm [Heliothis virescens (Fabricius)] larvae; assay: Tobacco budworm larvae, contact (TBW-C), 5 days; conditions: percent in solution, second-instar larvae
Procedure: as §1
Tobacco Budworm [Heliothis virescens (Fabricius)]:
(a) Contact: Test compounds were diluted in a 50-50 acetone-water solution. Cotton (Gossypium sp.) cotyledons were immersed in the test solutions for 2-3 seconds and placed on a wire screen to dry. The dried leaves were placed in petri dishes containing a moistened piece of filter paper and infested with 5 second-instar tobacco budworm larvae. The dishes were placed in a high humidity chamber for 5 days, and percent mortality of the larvae recorded. Test concentrations ranged from 0.1% downward. The LC-50 values are expressed below in Table 3 under the heading "TBW-C" in terms of percent of the test compound in the solution.

Row | Compound | LC50 HF [1] [µg] | LC50 BBA [2] [%] | LC50 TBW E (eggs) [3] [%] | LC50 BAW [4] [%] | LC50 CL [5] [%] | LC50 LH [6] [%] | LC50 MW [7] [%] | LC50 TBW C (contact) [8] [%]
1 | CC(C)C(=Nc1cccc(Cl)c1)OCc1cccc(Oc2ccccc2)c1 [Compound 7] | 8 | 0.0003 | 0.009 | 0.006 | 0.006 | 0.0002 |  | 
2 | CC(C)C(=Nc1ccc(Cl)c(Cl)c1)OCc1cccc(Oc2ccccc2)c1 [Compound 14] | 40 | 0.0003 |  | 0.005 | 0.004 | 0.001 | 0.01 | 
3 | CC(C)C(=Nc1ccc(Cl)cc1)OCc1ccc(F)c(Oc2ccccc2)c1 [Compound 23] | 5 | 0.001 | 0.017 | 0.001 | 0.0005 |  |  | 
4 | Clc1ccc(N=C(OCc2cccc(Oc3ccccc3)c2)C2CC2)cc1 [Compound 32] | 37 | 0.003 |  | 0.03 | 0.003 | > 0.05 | > 0.01 | 
5 | Fc1ccc(N=C(OCc2cccc(Oc3ccccc3)c2)C2CC2)cc1 [Compound 45] | 30 | 0.03 |  | 0.1 | 0.03 | > 0.05 |  | 
6 | CC(C)C(=Nc1ccc(F)cc1)OCc1cccc(Oc2ccccc2)c1 [Compound 46] | 7 | 0.003 | 0.016 | 0.006 | 0.003 | 0.002 |  | 
7 | FC(F)(F)c1ccc(N=C(OCc2cccc(Oc3ccccc3)c2)C2CC2)cc1 [Compound 62] | 20 | 0.001 |  | 0.02 | 0.005 | > 0.05 | > 0.01 | 
8 | FC(F)(F)Oc1ccc(N=C(OCc2cccc(Oc3ccccc3)c2)C2CC2)cc1 [Compound 63] | 30 | 0.0003 |  | 0.005 | 0.005 | 0.0001 | > 0.01 | 
9 | FC(F)(F)c1ccc(N=C(OCc2cccc(Oc3ccccc3)c2)C2CC2)c(Cl)c1 [Compound 65] | > 100 | > 0.05 |  | > 0.1 | < 0.01 | > 0.05 |  | 
10 | CC(C)C(=Nc1cccc(C(F)(F)F)c1)OCc1cccc(Oc2ccccc2)c1 [Compound 67] | 15 | 0.0002 | 0.01 | 0.006 | 0.001 | 0.00027 |  | 
11 | CCC(C)C(=Nc1ccc(F)c(Cl)c1)OCc1cccc(Oc2ccccc2)c1 (centres unmarked) [Compound 122] | 37 | > 0.05 | 0.05 | 0.01 | 0.0007 | > 0.05 | > 0.01 | 
12 | O=[N+]([O-])c1cccc(N=C(OCc2cccc(Oc3ccccc3)c2)C(Cl)Cl)c1 [Compound 174] | 17 | 0.05 | > 0.1 | 0.1 | 0.03 |  |  | 
13 | CC(C)C(=Nc1ccc(F)c(Cl)c1)OCc1cccc(Oc2ccc(Br)cc2)c1 [Compound 238] | 25 | 0.003 | 0.05 |  | 0.0002 | > 0.05 | > 0.01 | 0.0004
14 | CC(C)C(=Nc1ccc(F)c(Br)c1)OCc1cccc(Oc2ccc(F)cc2)c1 [Compound 253] | 10 | 0.002 | > 0.1 |  | 0.00013 | 0.003 | > 0.01 | 0.0005
15 | CC(C)C(=Nc1ccc(F)c(Cl)c1)OCc1cccc(Oc2ccccc2)n1 [Compound 462] | 7 | 0.001 | 0.04 |  | 0.001 | 0.001 | > 0.05 | 0.0025
16 | C#CCc1c(F)c(F)c(COC(=Nc2ccc(F)c(Cl)c2)C(C)C)c(F)c1F [Compound 520] | 5.5 | 0.0002 | > 0.1 |  | > 0.1 | 0.0003 | 0.0042 | 0.00075
17 | CC(C)C(=Nc1ccc(F)c(Cl)c1F)OCc1cccc(Oc2ccc(F)cc2)n1 [Compound 521] | 7.5 | 0.0008 | > 0.1 |  | 0.00005 | 0.05 | 0.01 | 0.0005
18 | CC(C)C(=Nc1ccc(Cl)c(Cl)c1)OCc1cccc(Oc2ccc(Cl)cc2)n1 [Compound 523] | 22 | 0.001 | > 0.1 |  | 0.00015 | > 0.05 | > 0.01 | 0.0002
19 | CC(C)C(=Nc1ccc(C(F)(F)F)cc1)OCc1cccc(Oc2ccc(Cl)cc2)n1 [Compound 530] | 9.8 | 0.0003 | 0.005 |  | 0.00027 | 0.05 | > 0.01 | 0.00005
20 | CC(C)C(=Nc1ccc(F)c(Cl)c1)OCc1cccc(Oc2ccc(F)c(F)c2)n1 [Compound 531] | 5 | > 0.05 | > 0.1 |  | > 0.1 | > 0.05 | > 0.01 | 0.00037
